# Source: PubChem BioAssay (NCI)
#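 Method: 48-hour compound exposure of cells in 96-well plates, five concentrations, linear interpolation of endpoints. TGI denotes the concentration required for complete inhibition of growth.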
# How the values were obtained:
# Assay in all cases: NCI anticancer screen, dose series, 48 h
# [1] = test system: SF-539 CNS
# [2] = test system: SF-295 CNS
# [3] = test system: MDA-MB-435
# [4] = test system: A549 NSCLC
# [5] = test system: RXF 393 renal
# [6] = test system: K-562 leukemia
# [7] = test system: TK-10 renal
# [8] = test system: M14 melanoma
# [9] = test system: KM12 colon
# [10] = test system: OVCAR-5 ovarian
# [11] = test system: SK-OV-3 ovarian
# [12] = test system: SN12C renal
# [13] = test system: UACC-62 melanoma
# [14] = test system: UO-31 renal
# [15] = test system: DU-145 prostate
# [16] = test system: COLO 205 colon
# [17] = test system: SR leukemia
# [18] = test system: OVCAR-3 ovarian
# [19] = test system: NCI-H522 lung
# [20] = test system: ACHN renal
# [21] = test system: CAKI-1 renal
# [22] = test system: MCF7 breast
# [23] = test system: SK-MEL-2 melanoma
# [24] = test system: T-47D breast
# [25] = test system: UACC-257 melanoma
# [26] = test system: SNB-19 CNS
# [27] = test system: SF-268 CNS
# [28] = test system: SNB-75 CNS
# [29] = test system: OVCAR-8 ovarian
# [30] = test system: MDA-MB-231 breast
# [31] = test system: HS 578T breast
# [32] = test system: SW-620 colon
# [33] = test system: HL-60(TB) leukemia
# [34] = test system: HOP-62 NSCLC
# [35] = test system: U251 CNS
# [36] = test system: SK-MEL-28 melanoma
# [37] = test system: NCI-H460 lung
# [38] = test system: OVCAR-4 ovarian
# [39] = test system: PC-3 prostate
# [40] = test system: EKVX NSCLC
# [41] = test system: IGROV1 ovarian
# [42] = test system: HT29 colon
# [43] = test system: 786-0 renal
# [44] = test system: MOLT-4 leukemia
# [45] = test system: SK-MEL-5 melanoma
# [46] = test system: MALME-3M melanoma
# [47] = test system: HCT-116 colon
# [48] = test system: NCI-H23 lung
# [49] = test system: NCI/ADR-RES ovarian
# [50] = test system: NCI-H226 lung
# [51] = test system: LOX IMVI melanoma
# [52] = test system: HCT-15 colon
smiles,measurement,setting,value
OCN(CO)c1ccc2c(c1)Cc1cc(F)ccc1-2,TGI,[1],36.8 µM
same,TGI,[2],30.1 µM
same,TGI,[3],36.8 µM
same,TGI,[4],47.3 µM
same,TGI,[5],> 100 µM
same,TGI,[6],39.9 µM
same,TGI,[7],39.2 µM
same,TGI,[8],60.9 µM
same,TGI,[9],35.4 µM
same,TGI,[10],46.8 µM
same,TGI,[11],95.9 µM
same,TGI,[12],38.6 µM
same,TGI,[13],38.1 µM
same,TGI,[14],59.9 µM
same,TGI,[15],50.2 µM
same,TGI,[16],24.9 µM
same,TGI,[17],39.3 µM
same,TGI,[18],27.4 µM
same,TGI,[19],37.4 µM
same,TGI,[20],36.4 µM
same,TGI,[21],44.6 µM
same,TGI,[22],42.7 µM
same,TGI,[23],45.9 µM
same,TGI,[24],36.1 µM
same,TGI,[25],37.2 µM
same,TGI,[26],44 µM
same,TGI,[27],81.3 µM
same,TGI,[28],56.3 µM
same,TGI,[29],40.5 µM
same,TGI,[30],32.9 µM
same,TGI,[31],33.9 µM
same,TGI,[32],25.4 µM
same,TGI,[33],78.4 µM
same,TGI,[34],> 100 µM
same,TGI,[35],34.8 µM
same,TGI,[36],88.7 µM
same,TGI,[37],65.1 µM
same,TGI,[38],45.7 µM
same,TGI,[39],36.2 µM
same,TGI,[40],41.5 µM
same,TGI,[41],43 µM
same,TGI,[42],27.9 µM
same,TGI,[43],> 100 µM
same,TGI,[44],75.8 µM
same,TGI,[45],23.3 µM
same,TGI,[46],52.4 µM
same,TGI,[47],> 100 µM
same,TGI,[48],93.7 µM
same,TGI,[49],51.4 µM
same,TGI,[50],40.3 µM
same,TGI,[51],31.7 µM
same,TGI,[52],41.9 µM
